Source: article PMC7819857, “Identification of Inhibitors of Integrin Cytoplasmic Domain Interactions With Syk” (Frontiers in Immunology, 2021)
Like-named read-outs stand apart in the source and are kept apart here.

Legend:
[1] = target: T1, wild-type full-length Syk : integrin β3 cytoplasmic domain (Homo sapiens, UniProt P43405); assay: Peptide affinity pull-down of Syk from THP-1 whole cell lysate on β3 peptide beads; type: binding; details: bβ3(fl) on neutravidin agarose beads, western blot
T1 construct: endogenous in cells; host or cells: THP-1 whole cell lysate
Description: THP-1 cells were washed in PIPES buffer (10 mM PIPES, 50 mM NaCl pH 6.8) and resuspended at 10 × 10^6 cells/ml in PIPES lysis buffer [PIPES buffer containing 1% Triton X-100, 1 mM EDTA, 1 mM Na3VO4, 50 mM NaF, 150 mM sucrose, protease inhibitors (cOmplete, Mini, EDTA-free Protease Inhibitor Cocktail, Roche, cat#11836170001)] and 0.1 mM N-ethylmaleimide. The cells were incubated overnight in lysis buffer at 4°C with end-over-end rotation. Lysates were then passed through a 21-gauge needle and centrifuged at 13,000 × g for 30 min at 4°C. Lysate protein concentrations were determined by using Quick Start Bradford Dye reagent (BioRad cat#5000202). […] Eluted samples were run on SDS-PAGE (4–20%, BioRad, cat# 4561093) and immunoblotted for Syk using anti-Syk antibody at 1:1,000 (4D10; SantaCruz) dilution followed by GAM-HRP at 1:5,000 and detected with SuperSignal West Pico (Thermo Scientific, cat# 34580). Western blots were scanned, and band intensity was measured using ImageJ ([31]) to compare and determine the effect of the drug on Syk/β3 binding. […]
Figure 3 Dose-response curves in primary and orthogonal screens. […] Data are expressed as mean fluorescence (Fl520) ± range from duplicates, and one representative experiment of “n” performed is shown. […] Data are expressed as mean abs450 ± SEM from triplicate determinations, and one of three representative experiments is shown. […]

[2] = target: T2, integrin β2 cytoplasmic domain : GST-Syk(6-370) (Homo sapiens, UniProt P43405); assay: AlphaScreen of integrin β2 cytoplasmic domain binding to Syk; details: read-out: antagonist activity against β2 (value without measure name), AlphaScreen
T2 construct: made in house; host or cells: E. coli BL21(DE3)
Description: (§1) The following HTS assay was developed to identify antagonists of the interaction between the integrin β3 cytoplasmic domain and the non-receptor tyrosine kinase Syk. […] ( Figure 1E ). Background signals in this assay were determined by omitting the integrin β3 peptide. Specific assay conditions are described in Table 1 . […] Then, either dimethyl sulfoxide control or compound was added, followed by biotinylated β3 peptide, and avidin-coated AlphaScreen donor beads. After a 4-h incubation period at room temperature (while protected from light), assays plates were read on an Infinite M1000 (Tecan) multiplate reader (Ex. 680/30; Em. 570/100).
(§2) Figure 4 Ceftazidime inhibition of integrin signaling. (A) Dose-response curves comparing ceftazidime antagonist activity against integrin β1A, β2, and β3 cytoplasmic domains binding to Syk as measured in AlphaScreen assays. […] Data are expressed as mean fluorescence (Fl520) ± the range from duplicate determinations. One of three experiments is shown. (B) Flow cytometric analysis of integrin α4β1, β2 subunit, αVβ3, and FcγRI (CD64) on THP-1 cells. Isotype control staining is shown as light gray histograms. Specific integrin staining is shown as darker gray histograms. […] One representative blot is shown (top), along with quantification of three separate experiments normalized to maximum Syk phosphorylation (bottom). Results are expressed as the mean ± SEM.

[3] = target: T3, integrin β1A cytoplasmic domain : GST-Syk(6-370) (Homo sapiens, UniProt P43405); assay: AlphaScreen of integrin β1A cytoplasmic domain binding to Syk; details: read-out: antagonist activity against β1 (value without measure name), AlphaScreen
T3 construct: made in house; host or cells: E. coli BL21(DE3)
Description: as §1, §2

[4] = target: T4, integrin β3 cytoplasmic domain : tandem SH2 domains of Syk (GST-Syk(6-370)) (Homo sapiens, UniProt P43405); assay: AlphaScreen of integrin β3 cytoplasmic domain peptide binding to GST-Syk(6-370)
T4 construct: the tandem SH2 domains of Syk (residues 6-370); made in house; host or cells: E. coli BL21(DE3)
Description: as §1
Figure 3 Dose-response curves in primary and orthogonal screens. (A) AlphaScreen dose-response curves. […] Data are expressed as mean fluorescence (Fl520) ± range from duplicates, and one representative experiment of “n” performed is shown. (B) Orthogonal ELISA-based dose-response assays. […] Data are expressed as mean abs450 ± SEM from triplicate determinations, and one of three representative experiments is shown. (C) Ceftazidime inhibition of β3 peptide binding to Syk from THP-1 whole cell lysate. THP-1 cell lysate (100 ug) was treated with or without ceftazidime (Ctaz) before incubation with β3-coated avidin-agarose beads, and bound Syk was measured by western blot (example shown in inset). Blank beads served as a negative control. Equal β3 peptide loading was verified by probing blots with avidin-HRP (not shown).

CC(C)(O/N=C(\C(=O)N[C@@H]1C(=O)N2C(C(=O)[O-])=C(C[n+]3ccccc3)CS[C@H]12)c1csc(N)n1)C(=O)O [ceftazidime]
inhibition of wild-type Syk interaction with integrin β3 cytoplasmic domains [1]: inhibited
IC50 [2]: 1.53 ± 0.21 µM
IC50 [3]: 1.62 ± 0.41 µM
IC50 ([4]; Figure 3A: biotinylated-b3(sh) peptide 30 nM, GST-Syk(6-370) 0.3 nM, read-out: IC50, AlphaScreen dose-response): 1.02 ± 0.2 µM
IC50 ([4]; abstract summary for both compounds, read-out: IC50 range, inhibition of integrin β-subunit cytoplasmic domain binding to the tandem SH2 domains of Syk): 1.02 to 4.9 µM
IC50 ([4]; as restated in the Discussion, read-out: IC50 in AlphaScreen assays): 1 µM
IC50 ([4]; biotinylated β chain peptide 30 nM, GST-Syk(6-370) 0.3 nM, Figure 4A, read-out: antagonist activity against β3 (value without measure name), AlphaScreen): 1.87 ± 0.2 µM
fold difference in inhibition, primary screen over false-positive counter screen (hit criterion) ([4]; re-sourced compounds, counter screen with biotinylated GST): greater than 3 fold
inhibition of fluorescent signal in the primary screen, re-sourced compounds (hit criterion) ([4]; re-sourced from a separate commercial source, 25 uM in text, 30 uM in legend of Figure 2C): greater than 50%
